Source: US10760052B2, “Method of inhibiting tau phosphorylation” (priority 2012, dated 2020)
Read-outs that look alike come from different tables or passages of the source.

Target: T1, mu opiate receptor (MOR) (Rattus norvegicus, UniProt P33535)
T1 construct: from tissue; host or cells: striatum (membrane preparation)
Assay type: biochemical

[1] = [35S]GTPγS binding to Gαo in striatal membranes, compound 0.1 μM
[2] = [35S]GTPγS binding to Gαo in striatal membranes, compound 1 μM
[3] = [35S]GTPγS binding to Gαo in striatal membranes, compound 1 μM plus 1 μM β-funaltrexamine (MOR antagonist)

T1 sequence (P33535 whole entry): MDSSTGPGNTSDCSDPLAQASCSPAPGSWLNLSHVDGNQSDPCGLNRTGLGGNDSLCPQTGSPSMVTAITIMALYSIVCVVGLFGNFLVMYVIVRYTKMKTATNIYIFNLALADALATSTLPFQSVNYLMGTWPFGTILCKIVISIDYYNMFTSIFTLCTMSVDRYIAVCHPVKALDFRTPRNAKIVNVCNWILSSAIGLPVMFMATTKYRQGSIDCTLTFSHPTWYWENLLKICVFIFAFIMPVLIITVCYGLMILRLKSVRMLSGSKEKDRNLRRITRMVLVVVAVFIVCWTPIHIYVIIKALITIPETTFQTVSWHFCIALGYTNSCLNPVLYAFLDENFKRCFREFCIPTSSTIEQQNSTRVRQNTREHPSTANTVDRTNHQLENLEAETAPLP

SMILES	% DAMGO (0.1 μM) [%]	% DAMGO (1 μM) [%]	% DAMGO + BFNA [%]	Concentration of FLNA-Binding Compound as Agonist 0.1 μM [1] [%]	Concentration of FLNA-Binding Compound as Agonist 1 μM [2] [%]	Concentration of FLNA-Binding Compound as Agonist 1 μM + BFNA [3] [%]	[35S]GTPγS binding, FLNA-Binding Compound as Agonist at 0.1 μM (0.1 μM compound, striatal membranes, Series C-2) [%]	[35S]GTPγS binding, FLNA-Binding Compound as Agonist at 1 μM + BFNA (1 μM compound + 1 μM β-FNA (selective MOR antagonist), Series C-2) [%]	[35S]GTPγS binding, FLNA-Binding Compound as Agonist at 1 μM (1 μM compound, striatal membranes, Series C-2) [%]	Concentration of FLNA-Binding Compound as Agonist 0.1 μM [%]	Concentration of FLNA-Binding Compound as Agonist 1 μM [%]	Concentration of FLNA-Binding Compound as Agonist 1 μM + BFNA [%]	[35S]GTPγS binding, FLNA-Binding Compound as Agonist at 0.1 μM [%]	[35S]GTPγS binding, FLNA-Binding Compound as Agonist at 1 μM [%]	[35S]GTPγS binding, FLNA-Binding Compound as Agonist at 1 μM + BFNA [%]
COc1ccccc1C(=O)CC1c2c(cc3c(c2OC)OCO3)CC[N+]1(C)C (stereo not drawn) [Compound B0025]	96.3	86.8	211.8	159.6	234.6	137.7	–	–	–	–	–	–	–	–	–
CC(=O)c1ccc(S(=O)(=O)N2CCOC23CCN(CC2CC2)CC3)cc1 [Compound C0095M]	107.4	88.8	489.5	–	–	–	189.1	107.7	224.6	–	–	–	–	–	–
COc1ccccc1CCC(=O)CC1c2c(cc3c(c2OC)OCO3)CC[N+]1(C)C (stereo not drawn) [Compound B0045]	82.6	83.4	257.1	129.3	193.1	83.8	–	–	–	–	–	–	–	–	–
COc1c2c(cc3c1C(CC(=O)c1ccc(O)c(C)c1)[N+](C)(C)CC3)OCO2 (stereo not drawn) [Compound B0002]	100.0	81.1	156.0	165.7	219.0	101.4	–	–	–	–	–	–	–	–	–
CC(=O)c1ccc(OCC(O)CN2CC(C)OC(C)C2)cc1 (stereo not drawn) [Compound A0044]	89.8	75.8	182.3	176.2	209.1	134.7	–	–	–	–	–	–	–	–	–
CC1CCC(C(C)C)C(OCC(O)CN2CCCN(C)CC2)C1 (stereo not drawn) [Compound A0010]	161.9	119.5	365.3	277.2	319.0	190.3	–	–	–	–	–	–	–	–	–
OC(COc1ccc(Br)c(F)c1)CN1CCSCC1 (stereo not drawn) [Compound A0059]	63.5	56.4	214.8	–	–	–	–	–	–	99.2	129.9	85.7	–	–	–
CC(=O)c1ccc(S(=O)(=O)N2CC(=O)NC23CCNCC3)cc1 [Compound C0086M]	117.5	104.9	692.3	–	–	–	–	–	–	–	–	–	206.8	265.3	152.3
COc1c2c(cc3c1C(CC(O)CCc1ccccc1)[N+](C)(C)CC3)OCO2 (stereo not drawn) [Compound B0052]	58.1	69.3	246.4	98.2	151.7	40.9	–	–	–	–	–	–	–	–	–
CC(=O)c1ccc(C(=O)N2CCC3(CC2)OCCN3S(=O)(=O)c2ccc(C(C)=O)cc2)cc1 [Compound C0052]	74.8	69.9	97.0	108.4	162.8	42.7	–	–	–	–	–	–	–	–	–
COc1ccccc1CC(O)CC1c2c(cc3c(c2OC)OCO3)CC[N+]1(C)C (stereo not drawn) [Compound B0032]	115.0	109.0	35.5	221.1	297.7	15.6	–	–	–	–	–	–	–	–	–
CC1CCC(C(C)C)C(OCC(O)CN2CC(C)OC(C)C2)C1 (stereo not drawn) [Compound A3333]	88.9	101.0	136.7	170.7	328.3	65.9	–	–	–	–	–	–	–	–	–
COCOc1ccc(C(=O)CC2c3c(cc4c(c3OC)OCO4)CC[N+]2(C)C)cc1C (stereo not drawn) [Compound B0041]	39.3	47.2	128.5	61.6	109.3	41.9	–	–	–	–	–	–	–	–	–
COc1ccc(CCC(O)CC2c3c(cc4c(c3OC)OCO4)CCN2C)cc1 (stereo not drawn) [Compound B0048]	104.8	87.8	298.5	185.1	223.4	78.5	–	–	–	–	–	–	–	–	–
O=S(=O)(c1ccc(C(F)(F)F)cc1)N1CCC2(CC1)OCCN2S(=O)(=O)c1ccc(C(F)(F)F)cc1 [Compound C0012]	54.8	86.7	280.7	96.8	224.8	184.4	–	–	–	–	–	–	–	–	–
COc1cccc(CCC(=O)CC2c3c(cc4c(c3OC)OCO4)CC[N+]2(C)C)c1 (stereo not drawn) [Compound B0034]	71.6	88.1	80.2	122.5	235.2	41.8	–	–	–	–	–	–	–	–	–
CC1CCC(C(C)C)C(OCC(O)CN2CCc3ccccc3C2)C1 (stereo not drawn) [Compound A0040]	23.5	54.0	22.6	46.1	149.0	16.7	–	–	–	–	–	–	–	–	–
